The values that follow come from patent EP0590721A1, “Method for expressing receptors of the human nervous system in the yeast Schizosaccharomyces pombe” (ENICHEM S.p.A., priority 1992, dated 1994).

For this data set, the target named is chimeric protein STE2-β₂AR (Homo sapiens, UniProt P07550). Particulars: (125I)-CYP 20 pM, competitor 10⁻⁹ M to 10⁻³ M, 37°C one hour, TNE.

With `CNC[C@H](O)c1ccc(O)c(O)c1` [epinephrine], the inhibition efficiency order entry is “alprenolol > isoproterenol > epinephrine”.
